# Data published in paper PMC10080691, “Enzyme-Responsive Double-Locked Photodynamic Molecular Beacon for Targeted Photodynamic Anticancer Therapy” (Journal of the American Chemical Society, 2023).
# System: HeLa cells
# Assay: Intracellular ROS generation (H2DCFDA)
# Type: cell-based, human
# Settings: no inhibitor pretreatment, 2 μM 1 h + 6 h, light λ > 610 nm, 23 mW cm-2, 14 J cm-2
# Protocol: The enzyme-responsive intracellular ROS generation of 1 was then examined in A549 and HeLa cells using 2′,7′-dichlorodihydrofluorescein diacetate (H2DCFDA) as the ROS fluorescent probe. Once H2DCFDA is internalized, it will be deacetylated by the intracellular esterase, followed by oxidation by the intracellular ROS, leading to the formation of the highly fluorescent 2′,7′-dichlorofluorescein (DCF).[79] The cells were first pretreated with SB-3CT (10 μM) and/or CA-074 Me (25 μM) or simply the neat medium for 2 h, followed by incubation with 1 (2 μM) for a further 1 h. As a negative control, the cells were simply incubated with 14 (2 μM) for 1 h. After being rinsed with PBS, the cells were incubated in the medium for a further 6 h. Finally, the cells were incubated with H2DCFDA (10 μM) for 30 min, followed by dark or light (λ > 610 nm, 23 mW cm^–2, 14 J cm^–2) treatment. […] It can be seen that for the MMP-2-positive A549 cells, the fluorescence due to DCF was in the following order: 1 without pretreatment of the cells with the two inhibitors > 1 with pretreatment of the cells with either one of the two inhibitors > 1 with pretreatment of the cells with both inhibitors ≈ 14. […] This trend, which reflects the extent of recovery of ROS generation, was in accord with that of the fluorescence recovery inside the cells (Figure 5c,d). For the MMP-2-negative HeLa cells, the intracellular fluorescence remained very weak even for 1 without pretreatment of the cells with the two inhibitors because of the intrinsically low MMP levels in the cells. […]
# or ER-Tracker Green (Thermo Fisher Scientific Inc., E34251) (1 μM for 15 min) in a serum-free medium at 37 °C. […] All the trackers were excited at 488 nm and their fluorescence was monitored at 500−570 nm, while the DSBDP moiety was excited at 638 nm and its fluorescence was monitored at 650−750nm. The images were digitized and analyzed using a Leica Application Suite X software. […]
# at 500−550 nm. The images were digitized and analyzed using a Leica Application Suite X […]
smiles,measurement,value
CCN(CC)c1ccc2nc3ccc(/N=N/c4ccc(N(C)CCCNC(=O)OC[C@@H]5[C@@H]6CCc7nnn(CC(=O)NCCCC[C@@H]8NC(=O)CNC(=O)[C@H](CCCCN)NC(=O)[C@H](CCCNC(=N)N)NC(=O)[C@H](C(C)C)NC(=O)CNC(=O)[C@H](CC(C)C)NC(=O)[C@@H]9CCCN9C(=O)[C@H](CCCCN)NC(=O)[C@@H](N)CSCc9cc(COc%10ccc(C%11=C%12C(C)=C(I)C(/C=C/c%13ccc(OCCOCCOCCOC)cc%13)=[N+]%12[B-](F)(F)n%12c(/C=C/c%13ccc(OCCOCCOCCOC)cc%13)c(I)c(C)c%12%11)cc%10)cc(c9)CSC[C@@H](C(N)=O)NC(=O)[C@H](CCCCN)NC(=O)[C@H](CCCCN)NC(=O)CNC(=O)[C@H](CC(C)C)NC(=O)[C@H](Cc9ccccc9)NC(=O)CNC(=O)[C@H](CCCCN)NC(=O)CNC8=O)c7CC[C@@H]65)cc4)cc3[n+](-c3ccccc3)c2c1 [compound 1],intracellular ROS generation (DCF fluorescence),very weak
